The source of these data is patent publication US20040142923A1, “Pyrrolidine sulfonamides” (priority 2003, published 2004).

The target of this experiment is human and rat GPR-14. Description: Radioligand binding ([125I] h-U-II). The settings on record: radioligand binding assay; HEK-293 cell membranes, 200 pM [125I] h-U-II; species (human or rat) not given. As to the method:
HEK-293 cell membranes containing stable cloned human and rat GPR-14 (20 ug/assay) were incubated with 200 pM [125I] h-U-II (200 Ci/mmol^−1 in the presence of increasing concentrations of test compounds in DMSO (0.1 nM to 10 uM), in a final incubation volume of 200 ul (20 mM Tris-HCl, 5 mM MgCl2). Incubation was done for 30 minutes at room temperature followed by filtration GF/B filters with Brandel cell harvester. ^125I labeled U-II binding was quantitated by gamma counting. Nonspecific binding was defined by ^125I U-II binding in the presence of 100 nM of unlabeled human U-II. Analysis of the data was performed by nonlinear least square fitting.

In general, Ki refers to the equilibrium dissociation constant of an inhibitor or competing ligand from its target.

Consider `O=C(NC1CCN(S(=O)(=O)c2cc(Cl)c(OC3CCNCC3)c(Cl)c2)C1)c1ccc(Cl)c(Cl)c1` (stereo not shown) [Example 5], for which the inhibitory constant (Ki) came out at 1.5 µM.
